Legend:
melanoma cell lines = test: Cell surface MHC class I expression, summary over the melanoma cell line panel; type: cell-based, human
Description: The goal of this study was to measure the effects of binimetinib on cell surface MHC class I expression in various melanoma cell lines. In this study, eight melanoma cell lines were evaluated: MEL-JUSO (NRAS Q61L mutation), IPC-298 (NRAS Q61L mutation), A375 (BRAF V600E, homozygous mutation), HS936.T (NRAS Q61K mutation and BRAF N581K mutation), MM485 (NRAS Q61R mutation), SK-MEL-2 (NRAS Q61R mutation), MM415 (NRAS Q61L mutation), Malme-3M (BRAF V600E, heterozygous mutation). The cells lines were seeded into flat bottom 96-well tissue culture plates at a density of 5000 cells per well and allowed to adhere overnight. The following day cells were treated with vehicle control (0.25% DMSO) or varying dilutions of Binimetinib (0.7 nM-25000 nM) for 1 hour. Cells were then treated with vehicle control or 100 ng/ml IFNgamma (R&D systems) for 72 hours. Cells were washed, trypsinized, and stained with Alexa Fluor® 647 anti-human HLA-A,B,C antibody (W6/32, eBioscience) and analyzed on a BD FACSCanto II flow cytometer. An IFNg titration and time course were performed for assay optimization. Maximal induction of MHC class I expression was seen 100 ng/mL of IFNγ (see, e.g., FIGS. 1 and 2).

[1] = Binimetinib steady state exposure quoted in figure legends; type: in vivo
[2] = test system: KRas mutant CT26 murine colon syngeneic tumors; test: CT26 syngeneic tumor growth, survival and tolerability; type: in vivo; settings: table
Description: 1% CMC/0.5% Tween-80 (CMCT) was prepared by adding 960 mL of distilled water to a 1000 mL Pyrex® glass bottle with a stir bar in the bottom, and was used as the oral vehicle. […] Carboxymethylcellulose (5 g, CMC, low viscosity, Sigma C5678, Batch #033K0008) was added slowly, over one hour. The solution was stirred until the CMC dissolved and the solution was clear. 30 mg/kg MEK162 (Binimetinib, 100% active) was prepared as a white, homogeneous suspension in CMCT. MEK162 was administered in 10 mL/kg and dosed at 30 mg/kg (3.0 mg/mL) by oral gavage. To prepare, dry test compound (90 mg) was weighed and 30 mL CMCT added. Dose suspension was sonicated until a fine suspension was achieved (˜15 min). Final dose suspension was stored at 4° C. during live phase and sonicated to resuspend prior to dose administration. Dose suspension was prepared every 4-5 days or as needed. […]
Animals were monitored for tumor growth and body weight 2-3 times per week based on outgrowth kinetics. Tumor diameter was measured with digital calipers, and the tumor volume in mm^3 was calculated by the formula: Volume=((width)^2×length)/2. TGI was calculated on day 15. […]
Survival defined as morbidity, mortality or tumor size exceeding 1400 mm3. […] Cures: Animals with no palpable tumor at the end of the study were scored as cures. […]

CT26 tumors = test: T-cell fraction and clonality by immune sequencing (mmTCRB assay); type: in vivo, mouse; settings: 5/10 tumors per group, FIG. 15
Description: Animals were monitored for tumor growth and body weight 2-3 times per week based on outgrowth kinetics. Tumor diameter was measured with digital calipers, and the tumor volume in mm^3 was calculated by the formula: Volume=((width)^2×length)/2. TGI was calculated on day 15. Animals were removed from study if found moribund or if tumor volume exceeded 1400 mm^3. At that time, tumor tissue was harvested and frozen for later analysis of T-cell clonality by immune sequencing (Adaptive Biotech, San Diego, Calif.). Food, water, temperature and humidity were according to Pharmacology Testing Facility performance standards (SOP's) which are in accordance with the 1996 Guide for the Care and Use of Laboratory Animals (NRC) and AAALAC-International.
The mechanism of combination activity was investigated by analyzing T-cell fraction and clonality by immune sequencing in 5/10 tumors from each group (FIG. 15). To determine the effect of binimetinib on the T cell repertoire of CT26 tumors, analysis was performed of mouse T-cell diversity, clonality and abundance as potential biomarkers by survey level sequencing of mouse tumor samples using the mmTCRB assay. Clonality was determined by quantitating the extent of mono- or oligoclonal expansion by measuring the shape of the clone frequency distribution. […]

## Cn1cnc2c(F)c(Nc3ccc(Br)cc3F)c(C(=O)NOCCO)cc21 [Binimetinib, 6-(4-bromo-2-fluorophenylamino)-7-fluoro-3-methyl-3H-benzoimidazole-5-carboxylic acid (2-hydroxyethoxy)-amide]
Melanoma cell lines; all tested cell lines, +IFNg
  increase of IFNg-induced MHC class I: 1.5-4 fold
Melanoma cell lines; in the 6 of 8 melanoma cell lines that responded, no IFNg
  increase in MHC class I cell surface expression: 1.5-3 fold
[1]; free fraction
  Steady state Cmax, free fraction: 26 nM
[1]; free fraction, day 15
  Trough (day 15), free fraction: 8.1 nM
[1]; in vivo, total
  Cmax: 1000 nM
[2]
  Median Survival: 26
CT26 tumors
  T-cell clonality: trend for decreased
  T-cell fraction: trend for decreased

Reference: patent publication US20190216923A1, “METHODS AND COMBINATION THERAPY TO TREAT CANCER” (Array BioPharma Inc., priority 2018, published 2019)
